The values below are quoted from earlier work in patent US7071337B2, “Benzoimidazole derivatives useful as antiproliferative agents” (Pfizer Inc, priority 2002, dated 2006).

The test system of data set [1] is transplanted human mammary carcinoma that expresses epidermal growth factor receptor tyrosine kinase (EGFR). Particulars: athymic nude mice.
Data set [2] relates to another carcinoma that does not express the EGF receptor. The following applies: athymic nude mice.

For the molecule `O=CN/C=C/c1cc(O)ccc1O` [erbstatin], in data set [1], the “growth of transplanted human mammary carcinoma expressing EGFR” value is given as “selectively attenuates the growth”. Moreover, the “growth of carcinoma not expressing the EGF receptor” value in data set [2] is on record as “without effect on the growth”.
